Laboratory results: patent US9676714B2, “Sulfonylindole derivatives and method for preparing the same” (Daewoong Pharmaceutical Co., Ltd., priority 2013, dated 2017)
Structures can show the parent of a compound that is named as a salt.

Experiments:
[1] = test system: basal gastric acid secretion; assay: Inhibitory effect on the basal gastric acid secretion in pylorus-ligated rats (Shay's rat model); assay type: in vivo, Sprague Dawley (SD) rats; details: 5 h, male SD rats, 3 mg/kg/2 ml into the duodenum, five hours after the ligation, total gastric acid secretion vs control group
Experimental: 3) Inhibitory Effect on the Basal Gastric Acid Secretion in Pylorus-Ligated Rats
Assays for determining inhibitory effect of the compounds of the present invention on the basal gastric acid secretion was performed according to Shay's rat model (Shay, H., et al., 1945, gastroenterology, 5, p. 43-61). Male Sprague Dawley (SD) rats with a body weight in the range of 180˜220 g were divided into test (n=5) and control groups (n=5), and fasted for 18 hours with free access to water. Under isoflurane anesthesia, the abdomens of the rats were incised and then the pylorus was ligated. After the ligation, the control groups were administered with only 10% ethanol, 20% polyethylene glycol (PEG) 400, and 10% aqueous Cremophor solution through the duodenum, and the other groups were administered with test compounds suspended in 10% ethanol, 20% PEG 400, and 10% aqueous Cremophor solution at a concentration of 3 mg/kg/2 ml into the duodenum. Five hours after the ligation, the experimental animals were euthanized and their stomach contents were collected. The thus obtained contents were centrifuged at 4,000×g for 10 minutes, and the supernatant was recovered to obtain gastric juice therefrom. The amount of the gastric juice and its pH were measured. The acidity of the gastric juice was determined by 0.1 N-NaOH volume (ueq/mL) for automatic titration of gastric acid to pH 7.0. The total acid output was obtained by multiplying the gastric acidity by the amount of gastric juice. Inhibition Activity (%) of Test Compounds=(total gastric acid secretion in control group−total gastric acid secretion in groups treated with test compounds)/total gastric acid secretion in control group×100

[2] = target: T1, proton pump (H+/K+-ATPase) (Sus scrofa, UniProt P19156); assay: Measurement of inhibitory effects on proton pump (H+/K+-ATPase) activities; assay type: biochemical; details: hog gastric vesicles, K+-specific H+/K+-ATPase activity, Tris-HCl buffer pH 7.4, 37° C. for 40 minutes, malachite green Pi readout
T1 construct: Gastric vesicles were prepared from hog stomach via centrifugal separation; from tissue; host or cells: hog stomach (gastric vesicles, method of Rabon et al. 1988)
T1 sequence (P19156 whole entry): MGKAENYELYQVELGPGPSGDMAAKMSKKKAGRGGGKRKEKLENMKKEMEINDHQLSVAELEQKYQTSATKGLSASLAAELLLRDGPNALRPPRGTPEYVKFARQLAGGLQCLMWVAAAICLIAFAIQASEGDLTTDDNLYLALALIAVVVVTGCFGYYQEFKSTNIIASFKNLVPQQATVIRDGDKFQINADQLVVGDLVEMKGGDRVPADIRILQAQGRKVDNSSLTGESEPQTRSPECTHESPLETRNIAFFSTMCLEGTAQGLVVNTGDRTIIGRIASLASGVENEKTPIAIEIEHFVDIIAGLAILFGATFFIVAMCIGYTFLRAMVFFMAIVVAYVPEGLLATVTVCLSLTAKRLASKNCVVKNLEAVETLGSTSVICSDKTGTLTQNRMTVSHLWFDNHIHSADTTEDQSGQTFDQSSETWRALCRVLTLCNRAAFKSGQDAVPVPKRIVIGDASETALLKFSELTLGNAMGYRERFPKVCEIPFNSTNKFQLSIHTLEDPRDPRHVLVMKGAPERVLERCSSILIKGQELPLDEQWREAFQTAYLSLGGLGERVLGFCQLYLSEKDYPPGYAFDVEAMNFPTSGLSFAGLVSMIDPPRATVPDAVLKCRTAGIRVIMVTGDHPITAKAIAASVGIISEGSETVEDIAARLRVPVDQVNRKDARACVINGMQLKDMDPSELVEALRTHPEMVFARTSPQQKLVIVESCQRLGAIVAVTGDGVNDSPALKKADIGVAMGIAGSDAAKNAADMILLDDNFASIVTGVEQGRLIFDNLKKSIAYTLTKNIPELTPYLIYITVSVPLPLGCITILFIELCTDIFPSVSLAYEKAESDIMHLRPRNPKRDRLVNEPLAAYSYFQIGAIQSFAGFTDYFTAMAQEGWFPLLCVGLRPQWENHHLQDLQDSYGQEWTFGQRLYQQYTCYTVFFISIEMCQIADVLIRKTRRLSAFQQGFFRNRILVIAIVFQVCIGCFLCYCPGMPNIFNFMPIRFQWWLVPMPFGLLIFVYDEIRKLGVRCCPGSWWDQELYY
T1 sequence (P18434 whole entry partner): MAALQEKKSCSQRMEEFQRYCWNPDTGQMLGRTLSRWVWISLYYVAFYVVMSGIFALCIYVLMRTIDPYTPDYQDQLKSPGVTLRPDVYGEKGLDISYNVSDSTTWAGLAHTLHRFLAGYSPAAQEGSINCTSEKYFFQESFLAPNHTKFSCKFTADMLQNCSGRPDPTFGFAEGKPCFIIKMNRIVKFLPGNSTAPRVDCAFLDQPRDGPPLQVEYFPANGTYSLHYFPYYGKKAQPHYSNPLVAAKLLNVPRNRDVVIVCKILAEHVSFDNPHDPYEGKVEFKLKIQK
How it was run: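 Hog gastric vesicles in 60 mmol/l Tris-HCl pH 7.4 with 0.5% DMSO were treated with compounds at room temperature; reaction was started with 10 μl of 10 mmol/l ATP stock. Released Pi was read at 570 nm, K+-specific activity taken as the ±K+ difference. IC50 from 4-parameter logistic fit.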

Row | Structure (SMILES) | IC50 [2] [nM] | inhibition in vivo at 3 mg/kg [1] [%]
1 | CNCc1cn(S(=O)(=O)c2cccnc2)c2cc(Nc3ccc(C)cc3F)ccc12 [Example 1, N-(2-fluoro-4-methylphenyl)-3-((methylamino)methyl)-1-(pyridin-3-ylsulfonyl)-1H-indol-6-amine hydrochloride] | 180 | 58
2 | CNCc1cn(S(=O)(=O)c2cccnc2)c2cc(Nc3ccc(C)cc3Cl)ccc12 [Example 22, N-(2-chloro-4-methylphenyl)-3-((methylamino)methyl)-1-(pyridin-3-ylsulfonyl)-1H-indol-6-amine] | 210 | 48
3 | CNCc1cn(S(=O)(=O)c2cccnc2)c2cc(Nc3ccc(Cl)cc3C(F)(F)F)ccc12 [Example 31, N-(4-chloro-2-(trifluoromethyl)phenyl)-3-((methylamino)methyl)-1-(pyridin-3-ylsulfonyl)-1H-indol-6-amine hydrochloride] | 920 | 41
4 | CNCc1cn(S(=O)(=O)c2cccnc2)c2cc(Nc3ccc(C(F)(F)F)cc3Cl)ccc12 [Example 34, N-(2-chloro-4-(trifluoromethyl)phenyl)-3-((methylamino)methyl)-1-(pyridin-3-ylsulfonyl)-1H-indol-6-amine hydrochloride] | 390 | 45
5 | CNCc1cn(S(=O)(=O)c2cccc(F)c2)c2cc(Nc3ccc(OC(F)(F)F)cc3OC)cnc12 [Example 343, 1-((3-fluorophenyl)sulfonyl)-N-(2-methoxy-4-(trifluoromethoxy)phenyl)-3-((methylamino)methyl)-1H-pyrrolo[3,2-b]pyridin-6-amine hydrochloride] | 1920 | 
6 | CNCc1cn(S(=O)(=O)c2cncc(F)c2)c2cc(Nc3ccc(F)cc3Cl)cnc12 [Example 352, N-(2-chloro-4-fluorophenyl)-1-((5-fluoropyridin-3-yl)sulfonyl)-3-((methylamino)methyl)-1H-pyrrolo[3,2-b]pyridin-6-amine hydrochloride] | 250 | 
7 | CNCc1cn(S(=O)(=O)c2cccc(F)c2)c2cc(Nc3ccc(C)cc3Cl)ncc12 [Example 353, N-(2-chloro-4-methylphenyl)-1-((3-fluorophenyl)sulfonyl)-3-((methylamino)methyl)-1H-pyrrolo[3,2-c]pyridin-6-amine hydrochloride] | 830 | 
8 | CNCc1cn(S(=O)(=O)c2cccc(F)c2)c2cc(Nc3ccc(F)cc3C)ncc12 [Example 354, N-(4-fluoro-2-methylphenyl)-1-((3-fluorophenyl)sulfonyl)-3-((methylamino)methyl)-1H-pyrrolo[3,2-c]pyridin-6-amine hydrochloride] | 800 | 
9 | CNCc1cn(S(=O)(=O)c2cccc(F)c2)c2cc(Nc3ccc(F)cc3Cl)ncc12 [Example 355, N-(2-chloro-4-fluorophenyl)-1-((3-fluorophenyl)sulfonyl)-3-((methylamino)methyl)-1H-pyrrolo[3,2-c]pyridin-6-amine hydrochloride] | 480 | 
10 | CNCc1cn(S(=O)(=O)c2cccc(F)c2)c2cc(Nc3ccc(Cl)nc3Cl)ncc12 [Example 357, N-(2,6-dichloropyridin-3-yl)-1-((3-fluorophenyl)sulfonyl)-3-((methylamino)methyl)-1H-pyrrolo[3,2-c]pyridin-6-amine hydrochloride] | 950 | 
11 | CNCc1cn(S(=O)(=O)c2cccc(F)c2)c2cc(Nc3ccc(C)nc3Cl)ncc12 [Example 358, N-(2-chloro-6-methylpyridin-3-yl)-1-((3-fluorophenyl)sulfonyl)-3-((methylamino)methyl)-1H-pyrrolo[3,2-c]pyridin-6-amine hydrochloride] | 1270 | 
12 | CNCc1cn(S(=O)(=O)c2cccc(F)c2)c2cc(Nc3ccc(C)cc3Cl)ncc12 [Example 359, N-(2-chloro-4-methylphenyl)-1-((3-fluorophenyl)sulfonyl)-3-((methylamino)methyl)-1H-pyrrolo[3,2-c]pyridin-6-amine hydrochloride] | 18300 | 

Second part, led by results:

Row | IC50 [2] [nM] | Structure (SMILES) | inhibition in vivo at 3 mg/kg [1] [%]
13 | 740 | CNCc1cn(S(=O)(=O)c2cccnc2)c2cc(Nc3ccc(Cl)cc3F)ccc12 [Example 28, N-(4-chloro-2-fluorophenyl)-3-((methylamino)methyl)-1-(pyridin-3-ylsulfonyl)-1H-indol-6-amine hydrochloride] | 44
14 | 130 | CNCc1cn(S(=O)(=O)c2cccnc2)c2cc(Nc3ccc(Cl)cc3Cl)ccc12 [Example 29, N-(2,4-dichlorophenyl)-3-((methylamino)methyl)-1-(pyridin-3-ylsulfonyl)-1H-indol-6-amine hydrochloride] | 44
15 | 380 | CNCc1cn(S(=O)(=O)c2cccc(F)c2)c2cc(Nc3ccc(Cl)cc3C)cnc12 [Example 341, N-(4-chloro-2-methylphenyl)-1-((3-fluorophenyl)sulfonyl)-3-((methylamino)methyl)-1H-pyrrolo[3,2-b]pyridin-6-amine hydrochloride] | 
16 | 970 | CNCc1cn(S(=O)(=O)c2cccc(F)c2)c2cc(Nc3ccc(Cl)nc3C)cnc12 [Example 344, N-(6-chloro-2-methylpyridin-3-yl)-1-((3-fluorophenyl)sulfonyl)-3-((methylamino)methyl)-1H-pyrrolo[3,2-b]pyridin-6-amine hydrochloride] | 
17 | 120 | CNCc1cn(S(=O)(=O)c2cccnc2)c2cc(Nc3ccc(C)cc3Cl)cnc12 [Example 345, N-(2-chloro-4-methylphenyl)-3-((methylamino)methyl)-1-(pyridin-3-ylsulfonyl)-1H-pyrrolo[3,2-b]pyridin-6-amine hydrochloride] | 
18 | 230 | CNCc1cn(S(=O)(=O)c2cccnc2)c2cc(Nc3ccc(F)cc3C)cnc12 [Example 346, N-(4-fluoro-2-methylphenyl)-3-((methylamino)methyl)-1-(pyridin-3-ylsulfonyl)-1H-pyrrolo[3,2-b]pyridin-6-amine hydrochloride] | 
19 | 180 | CNCc1cn(S(=O)(=O)c2cccnc2)c2cc(Nc3ccc(F)cc3Cl)cnc12 [Example 347, N-(2-chloro-4-fluorophenyl)-3-((methylamino)methyl)-1-(pyridin-3-ylsulfonyl)-1H-pyrrolo[3,2-b]pyridin-6-amine hydrochloride] | 
20 | 200 | CNCc1cn(S(=O)(=O)c2cccnc2)c2cc(Nc3ccc(Cl)cc3C)cnc12 [Example 348, N-(4-chloro-2-methylphenyl)-3-((methylamino)methyl)-1-(pyridin-3-ylsulfonyl)-1H-pyrrolo[3,2-b]pyridin-6-amine hydrochloride] | 
21 | 280 | CNCc1cn(S(=O)(=O)c2cccnc2)c2cc(Nc3ccc(Cl)cc3Cl)cnc12 [Example 349, N-(2,4-dichlorophenyl)-3-((methylamino)methyl)-1-(pyridin-3-ylsulfonyl)-1H-pyrrolo[3,2-b]pyridin-6-amine hydrochloride] | 
22 | 260 | CNCc1cn(S(=O)(=O)c2cncc(F)c2)c2cc(Nc3ccc(C)cc3Cl)cnc12 [Example 350, N-(2-chloro-4-methylphenyl)-1-((5-fluoropyridin-3-yl)sulfonyl)-3-((methylamino)methyl)-1H-pyrrolo[3,2-b]pyridin-6-amine hydrochloride] | 
23 | 350 | CNCc1cn(S(=O)(=O)c2cncc(F)c2)c2cc(Nc3ccc(F)cc3C)cnc12 [Example 351, N-(4-fluoro-2-methylphenyl)-1-((5-fluoropyridin-3-yl)sulfonyl)-3-((methylamino)methyl)-1H-pyrrolo[3,2-b]pyridin-6-amine hydrochloride] | 
